From the supplement of paper PMC11208160

Test: recombinant UMI read abundance after kanamycin selection (control-corrected) (log10(CPM+1)); higher = more efficient recombination; extreme values may be limits of the assay; sequences stand for … in AGTGCAGAGAAAATCGGCCAGTTTTCTCTGCCTGCAGTCCGCATGCCGTGGGACCCCTTGGGTTCTAACCTGTTGCCTAGATTTATGCAGCGGACTGCCTTTCTCCCAAAGTGATAAACCGG…AGGTTGGTTTCACT; site = the 11-nt donor
Procedure, shortened: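 Pooled Escherichia coli screen of donor and donor-binding-loop pairs for the IS621 bridge recombinase. Each pair sits with a 12-nt UMI on a plasmid carrying a promoterless kanamycin gene. The library was co-electroporated with a target plasmid encoding a fixed target and T7-inducible recombinase, then plated with IPTG (0.07 mM) plus kanamycin, or unselected, each in two replicates. Recombinant UMIs were PCR-amplified across the donor–target junction and sequenced. Counts became CPM, averaged over replicates, scaled by control-derived factors and reported as log10(CPM+1).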
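Note: IS621 bridge recombinase in Escherichia coli cells against a fixed T5 target plasmid.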

Point of comparison: “TCAGGTACATGGACCGGTTTTCCCGGTAATCCGTATTTGCA (site TCAGGTACTTG)”, “recombinant UMI read abundance (log10)” value 2.02. Against it:
- TCAGAGACATGGACCGGTTTTCCCGGTAATCCGTATTTGAG (site TCAGAGACTCG) — lower, 0.938
- TCAGAGACATGGACCGGTTTTCCCGGTAATCCGTATTTGAG (site TCAGAGACTCT) — lower, 1.82
- TCAGAGACATGGACCGGTTTTCCCGGTAATCCGTATTTGCG (site ACAGAGACTCG) — lower, 1.11
- TCAGAGACATGGACCGGTTTTCCCGGTAATCCGTATTTGCG (site CCAGAGACTCG) — lower, 1.66
- TCAGAGACATGGACCGGTTTTCCCGGTAATCCGTATTTGCG (site GCAGAGACTCG) — lower, 0.00466
- TCAGAGACATGGACCGGTTTTCCCGGTAATCCGTATTTGCG (site TAAGAGACTCG) — lower, 1.02
- TCAGAGACATGGACCGGTTTTCCCGGTAATCCGTATTTGCG (site TCAAAGACTCG) — lower, 1.55
- TCAGAGACATGGACCGGTTTTCCCGGTAATCCGTATTTGCG (site TCACAGACTCG) — lower, 0.316
- TCAGAGACATGGACCGGTTTTCCCGGTAATCCGTATTTGCG (site TCAGAAACTCG) — lower, 1.73
- TCAGAGACATGGACCGGTTTTCCCGGTAATCCGTATTTGCG (site TCAGACACTCG) — lower, 0.327
- TCAGAGACATGGACCGGTTTTCCCGGTAATCCGTATTTGCG (site TCAGAGACTAG) — lower, 0.65
- TCAGAGACATGGACCGGTTTTCCCGGTAATCCGTATTTGCG (site TCAGAGACTCA) — lower, 0.943
- TCAGAGACATGGACCGGTTTTCCCGGTAATCCGTATTTGCG (site TCAGAGACTCC) — lower, 0.0212
- TCAGAGACATGGACCGGTTTTCCCGGTAATCCGTATTTGCG (site TCAGAGACTCG) — higher, 2.3
- TCAGAGACATGGACCGGTTTTCCCGGTAATCCGTATTTGCG (site TCAGAGACTCT) — lower, 0.0281
- TCAGAGACATGGACCGGTTTTCCCGGTAATCCGTATTTGCG (site TCAGAGACTGG) — lower, 0.387
- TCAGAGACATGGACCGGTTTTCCCGGTAATCCGTATTTGCG (site TCAGAGACTTG) — within 0.2 log units, 1.84
- TCAGAGACATGGACCGGTTTTCCCGGTAATCCGTATTTGCG (site TCAGAGCCTCG) — lower, 0.0106
- TCAGAGACATGGACCGGTTTTCCCGGTAATCCGTATTTGCG (site TCAGAGGCTCG) — within 0.2 log units, 1.98
- TCAGAGACATGGACCGGTTTTCCCGGTAATCCGTATTTGCG (site TCAGAGTCTCG) — lower, 1.37
- TCAGAGACATGGACCGGTTTTCCCGGTAATCCGTATTTGCG (site TCAGATACTCG) — lower, 0.784
- TCAGAGACATGGACCGGTTTTCCCGGTAATCCGTATTTGCG (site TCAGCGACTCG) — lower, 0.00351
- TCAGAGACATGGACCGGTTTTCCCGGTAATCCGTATTTGCG (site TCAGGGACTCG) — lower, 0.0144
- TCAGAGACATGGACCGGTTTTCCCGGTAATCCGTATTTGCG (site TCAGTGACTCG) — lower, 0.0233
- TCAGAGACATGGACCGGTTTTCCCGGTAATCCGTATTTGCG (site TCATAGACTCG) — lower, 0.524
- TCAGAGACATGGACCGGTTTTCCCGGTAATCCGTATTTGCG (site TCCGAGACTCG) — lower, 0.462
- TCAGAGACATGGACCGGTTTTCCCGGTAATCCGTATTTGCG (site TCGGAGACTCG) — lower, 0.836
- TCAGAGACATGGACCGGTTTTCCCGGTAATCCGTATTTGCG (site TCTGAGACTCG) — lower, 0.346
- TCAGAGACATGGACCGGTTTTCCCGGTAATCCGTATTTGCG (site TGAGAGACTCG) — lower, 0.498
- TCAGAGACATGGACCGGTTTTCCCGGTAATCCGTATTTGCG (site TTAGAGACTCG) — lower, 1.56
- TCAGAGGCATGGACCGGTTTTCCCGGTAATCCGTATTTGCG (site TCAGAGACTCG) — lower, 0.431
- TCAGAGGCATGGACCGGTTTTCCCGGTAATCCGTATTTGCG (site TCAGAGCCTCG) — lower, 0.0967
- TCAGAGGCATGGACCGGTTTTCCCGGTAATCCGTATTTGCG (site TCAGAGGCTCG) — lower, 1.26
- TCAGAGGCATGGACCGGTTTTCCCGGTAATCCGTATTTGCG (site TCAGAGTCTCG) — within 0.2 log units, 2.18
- TCAGGTGCATGGACCGGTTTTCCCGGTAATCCGTATTTGAT (site ACAGGTGCTAT) — lower, 0
- TCAGGTGCATGGACCGGTTTTCCCGGTAATCCGTATTTGAT (site CCAGGTGCTAT) — lower, 1.06
- TCAGGTGCATGGACCGGTTTTCCCGGTAATCCGTATTTGAT (site GCAGGTGCTAT) — lower, 0.018
- TCAGGTGCATGGACCGGTTTTCCCGGTAATCCGTATTTGAT (site TCAGGTGCTAT) — lower, 1.74
- TCAGGTTCATGGACCGGTTTTCCCGGTAATCCGTATTTGGA (site TCAGGTTCTTC) — within 0.2 log units, 2.16
- TCAGTATCATGGACCGGTTTTCCCGGTAATCCGTATTTGCA (site ACAGTATCTTG) — within 0.2 log units, 1.93
- TCAGTATCATGGACCGGTTTTCCCGGTAATCCGTATTTGCA (site CCAGTATCTTG) — within 0.2 log units, 2.06
- TCAGTATCATGGACCGGTTTTCCCGGTAATCCGTATTTGCA (site GCAGTATCTTG) — lower, 0.463
- TCAGTATCATGGACCGGTTTTCCCGGTAATCCGTATTTGCA (site TCAGTATCTTG) — higher, 2.23
- TCAGTATCATGGACCGGTTTTCCCGGTAATCCGTATTTGTA (site ACAGTATCTTG) — lower, 0.377
- TCAGTATCATGGACCGGTTTTCCCGGTAATCCGTATTTGTA (site TCAGTATCTTA) — higher, 2.5
- TCAGTCACATGGACCGGTTTTCCCGGTAATCCGTATTTGAG (site TCAGTCACTCT) — lower, 0.702
- TCAGTGACATGGACCGGTTTTCCCGGTAATCCGTATTTGCG (site TCAGAGACTCG) — lower, 0.0602
- TCAGTGACATGGACCGGTTTTCCCGGTAATCCGTATTTGCG (site TCAGCGACTCG) — lower, 0.00331
- TCAGTGACATGGACCGGTTTTCCCGGTAATCCGTATTTGCG (site TCAGGGACTCG) — lower, 0.00386
- TCAGTGACATGGACCGGTTTTCCCGGTAATCCGTATTTGCG (site TCAGTGACTCG) — lower, 1.21
- TCATACTCATGGACCGGTTTTCCCGGTAATCCGTATTTGCG (site TCATACTCTAG) — lower, 0
- TCATACTCATGGACCGGTTTTCCCGGTAATCCGTATTTGCG (site TCATACTCTCG) — higher, 2.57
- TCATACTCATGGACCGGTTTTCCCGGTAATCCGTATTTGCG (site TCATACTCTGG) — lower, 0.0107
- TCATACTCATGGACCGGTTTTCCCGGTAATCCGTATTTGCG (site TCATACTCTTG) — within 0.2 log units, 2.1
- TCATAGGCATGGACCGGTTTTCCCGGTAATCCGTATTTGAG (site TCATAGGCTCT) — lower, 1.46
- TCATCTTCATGGACCGGTTTTCCCGGTAATCCGTATTTGGT (site TCATCTTCTAC) — lower, 0.467
- TCATGACCATGGACCGGTTTTCCCGGTAATCCGTATTTGCC (site TCATGACCTGG) — lower, 0
- TCATGACCATGGACCGGTTTTCCCGGTAATCCGTATTTGCG (site TCATGACCTCG) — lower, 0.00794
- TCATGAGCATGGACCGGTTTTCCCGGTAATCCGTATTTGGG (site TAATGAGCTCC) — lower, 0.0178
- TCATGAGCATGGACCGGTTTTCCCGGTAATCCGTATTTGGG (site TCATGAGCTCC) — lower, 0.0121
- TCATGAGCATGGACCGGTTTTCCCGGTAATCCGTATTTGGG (site TGATGAGCTCC) — lower, 0.00797
- TCATGAGCATGGACCGGTTTTCCCGGTAATCCGTATTTGGG (site TTATGAGCTCC) — lower, 0.00944
- TCATGTCCATGGACCGGTTTTCCCGGTAATCCGTATTTGTG (site TCATGTCCTCA) — lower, 0
- TCATTCTCATGGACCGGTTTTCCCGGTAATCCGTATTTGCA (site TCATACTCTTG) — lower, 1.25
- TCATTCTCATGGACCGGTTTTCCCGGTAATCCGTATTTGCA (site TCATCCTCTTG) — lower, 0
- TCATTCTCATGGACCGGTTTTCCCGGTAATCCGTATTTGCA (site TCATGCTCTTG) — lower, 0.00845
- TCATTCTCATGGACCGGTTTTCCCGGTAATCCGTATTTGCA (site TCATTCTCTTG) — lower, 1.41
- TCCAAAGCATGGACCGGTTTTCCCGGTAATCCGTATTTGGA (site TCCAAAGCTTC) — lower, 0.0225
- TCCAAGTCATGGACCGGTTTTCCCGGTAATCCGTATTTGCC (site TCCAAATCTGG) — lower, 0
- TCCAAGTCATGGACCGGTTTTCCCGGTAATCCGTATTTGCC (site TCCAACTCTGG) — lower, 0
- TCCAAGTCATGGACCGGTTTTCCCGGTAATCCGTATTTGCC (site TCCAAGTCTGG) — lower, 0
- TCCAAGTCATGGACCGGTTTTCCCGGTAATCCGTATTTGCC (site TCCAATTCTGG) — lower, 0
- TCCAATTCATGGACCGGTTTTCCCGGTAATCCGTATTTGAC (site TCCAATTCTGA) — lower, 0
- TCCAATTCATGGACCGGTTTTCCCGGTAATCCGTATTTGAC (site TCCAATTCTGC) — lower, 0
